Results: patent US10111955B2, “PEG derivative” (priority 2014, dated 2018)

Key:
[1] = system: pancreatic cancer cells; experiment: Test Example 1: pancreatic cancer cells transplanted into BALB/c nude mouse, tumor volume and body weight; type: in vivo; settings: 4.5 mg/kg/day × 14 days, subcutaneous continuous infusion
Method: 5×10^6 cells of pancreatic cancer cells were transplanted into the right abdomen of a BALB/c nude mouse, and after 7 days, at the time point at which the average tumor size reached 100 mm^3, drug administration was initiated. Up to 29 days from the time of drug administration, the body weight of the mouse and the tumor volume were measured. The results are presented in FIG. 11, FIG. 12, and Table 1. Subcutaneous continuous infusion of 1-(2′-cyano-2′-deoxy-β-D-arabinofuranosyl)cytosine hydrochloride (DFP-10917) at a dose of 4.5 mg/kg/day was continuously performed for two weeks using a micropump embedded in the body of the mouse. In contrast, Compound (1a) was intravenously administered once a week at a dose of 100 mg/kg, 200 mg/kg, or 300 mg/kg. The dosage of this Compound (1a) is administration once a week at a dose of 2.4 mg/kg, 4.8 mg/kg, or 7.2 mg/kg, as converted to […]. For the control, a buffer solution (pH=5.0) of sodium acetate was administered.

[2] = system: Human lung cancer cell A549 cells; experiment: Test Example 5 (second): human lung cancer cell A549 transplanted into nude mouse, Tables 5 and 6; type: in vivo, BALB/c nude mouse; settings: once a day, for 2 weeks
From the text: Human lung cancer cell A549 cells were transplanted into the right abdomen of a BALB/c nude mouse, and after 11 days, at the time point at which the average tumor size reached 200 mm^3, drug administration was initiated.

[3] = system: human breast cancer cell BT474; experiment: Test Example 4: human breast cancer cell BT474 transplanted into nude mouse; type: in vivo, BALB/c nude mouse; settings: 100 mg/kg once a week, total dosage 200 mg/kg
Method: Compound (1a) was intravenously administered once a week at a dose of 200 mg/kg (the amount as converted to DFP-10917 was 4.8 mg/kg), and pemetrexed, which is a standard drug for lung cancer, was intraperitoneally administered once a week at a dose of 300 mg/kg. For the control, physiological saline was intravenously administered once a week. The observation was made for two weeks (administered two times in total). 1×10^7 cells of human breast cancer cell BT474 were transplanted into the right abdomen of a BALB/c nude mouse, and drugs were administered in the same manner as in Test Example 3. DFP-10917 and Compound (1a) were intravenously administered once a week, two times in total. For the control, physiological saline was administered once a week.

[4] = system: human pancreatic cancer cell Panc-1; experiment: Test Example 5: human pancreatic cancer cell Panc-1 transplanted into nude mouse; type: in vivo, BALB/c nude mouse; settings: 100 mg/kg iv, repeated four times, total dosage 400 mg/kg
Method: Compound (1a) was intravenously administered once a week at a dose of 200 mg/kg (the amount as converted to DFP-10917 was 4.8 mg/kg), and pemetrexed, which is a standard drug for lung cancer, was intraperitoneally administered once a week at a dose of 300 mg/kg. For the control, physiological saline was intravenously administered once a week. The observation was made for two weeks (administered two times in total). 5×10^6 cells of human pancreatic cancer cell Panc-1 were transplanted into the right abdomen of a BALB/c nude mouse, and drugs were administered in the same manner as in Test Example 3. Compound (1g) was intravenously administered once a week, two times in total, or twice a week. Gemcitabine was administered such that 100 mg/kg was administered in four divided portions over 3 days, and this intravenous administration was repeated four times in total. For the control, physiological saline was administered once a week.

[5] = system: human breast cancer cell BT474; experiment: Test Example 6: human breast cancer cell BT474 transplanted into nude mouse; type: in vivo, BALB/c nude mouse; settings: 5 mg/kg iv, once a week, for 2 weeks
Method: 1×10^7 cells of human breast cancer cell BT474 were transplanted into the right abdomen of a BALB/c nude mouse, and when the tumor volume reached 100 to 150 mm^3, drugs were administered. The administration was implemented once a week for two weeks.

[6] = system: human lung cancer cell A549; experiment: Test Example 3: human lung cancer cell A549 transplanted into nude mouse; type: in vivo, BALB/c nude mouse; settings: 300 mg/kg intraperitoneally once a week, total dosage 600 mg/kg, two weeks
Method: 5×10^6 cells of human lung cancer cell A549 were transplanted into the right abdomen of a BALE/c nude mouse, and after 14 days, at the time at which the average tumor size reached 127 mm^3, drug administration was initiated. Compound (1a) was intravenously administered once a week at a dose of 200 mg/kg (the amount as converted to DFP-10917 was 4.8 mg/kg), and pemetrexed, which is a standard drug for lung cancer, was intraperitoneally administered once a week at a dose of 300 mg/kg. For the control, physiological saline was intravenously administered once a week. The observation was made for two weeks (administered two times in total).

Cl.N#C[C@H]1[C@H](O)[C@@H](CO)O[C@H]1n1ccc(N)nc1=O [DFP-10917, 1-(2′-cyano-2′-deoxy-β-D-arabinofuranosyl)cytosine hydrochloride]
TGI (D 29, %) tumor growth inhibition [1]: 37.7% | Tumor Volume (D 29, mm^3) ([1]; Mean ± SEM): 917 ± 72 mm^3

CCNCCNC(=O)c1c(C)[nH]c(/C=C2\C(=O)Nc3ccc(F)cc32)c1C [De-ethylated form of sunitinib]
TGI (D 29, %) ([2]; 50 mg/kg po): 43.1% | Tumor Volume (D 29, mm^3) ([2]; 50 mg/kg po): 687 ± 103 mm^3

Nc1ccn([C@@H]2O[C@H](CO)[C@@H](O)C2(F)F)c(=O)n1 [Gemcitabine, gemcitabine]
TGI (tumor growth inhibition) [3]: 43 | Tumor Volume [3]: 525 ± 95 | TGI (tumor growth inhibition) [4]: 63.6 | Tumor Volume ([4]; in mm³ (unit assumed)): 370 ± 37

CS(=O)(=O)CCNCc1ccc(-c2ccc3ncnc(Nc4ccc(OCc5cccc(F)c5)c(Cl)c4)c3c2)o1 [Lapatinib, lapatinib]
TGI (D 29, %) ([2]; 100 mg/kg po): 25.6% | Tumor Volume (D 29, mm^3) ([2]; 100 mg/kg po): 898 ± 120 mm^3

CC(=O)O[C@H]1C(=O)[C@@]2(C)[C@H]([C@H](OC(=O)c3ccccc3)[C@]3(O)C[C@H](OC(=O)[C@H](O)[C@@H](NC(=O)c4ccccc4)c4ccccc4)C(C)=C1C3(C)C)[C@]1(OC(C)=O)CO[C@@H]1C[C@@H]2O [Paclitaxel, paclitaxel]
TGI (D 23, %) tumor growth inhibition ratio [5]: 29.8% | Tumor Volume (D 23, mm^3) [5]: 275 ± 39 mm^3

Nc1nc2[nH]cc(CCc3ccc(C(=O)N[C@@H](CCC(=O)O)C(=O)O)cc3)c2c(=O)[nH]1 [Pemetrexed, pemetrexed]
TGI (tumor growth inhibition) [6]: 30 | Tumor Volume ([6]; in mm³): 818 ± 44
